In patent US20120244074A1, “LABELLED INTEGRIN BINDERS” (priority 2009, published 2012):

Columns and labels:
[1] = tested on: lung adenocarcinoma cell line H2009; experiment: Flow cytometry evaluation of binding on H2009 cells; assay type: cell-based; conditions: 100 nM, incubation time 1 h at 37° C.
Source text: Binding of imaging agent 7 (prepared as described in Example 9) was studied using flow cytometric analysis (Beckman Coulter FC500 MPL) on lung adenocarcinoma cell line H2009 (Cancer Res; 67: 5889-5895).

integrin receptors αvβ3 = biological target: T1, integrin receptors αvβ3 (Homo sapiens, UniProt P05106+P06756); experiment: In vitro affinity assessment αvβ3: competition with radiolabelled Echistatin on membrane fractions of EA-Hy 926; assay type: binding; conditions: for competing out binding of the radiolabelled Echistatin: highest concentration tested 144 μM, FIG. 1
T1 construct: membrane fractions prepared from human endothelial adenocarcinoma cell line EA-Hy 926; endogenous in cells; host or cells: EA-Hy 926 (human endothelial cell line), membrane fractions
Experimental: Affinity for integrin receptors αvβ3 was measured by competition experiments with [[…]]-Echistatin on membrane fractions prepared from human endothelial adenocarcinoma cell line EA-Hy 926 using a homogenizer and isolated by ultracentrifugation. Dilutions of test compounds were mixed with the radiotracer and membrane fraction prior to incubation for 1 h at 37° C. After a washing procedure the membranes were harvested on a filter using Skatron micro harvester. The filter spots were finally excised and counted in a Packard γ-counter. The Kd of [[…]]-Echistatin was calculated using Prism software. […] The compounds tested were EMD527040 (benchmark), the cPn216-chelated compound of Example 2(viii) and the tetraamine-chelated compound of Example 3(ii).

| Molecule | competing out binding of the radiolabelled Echistatin (integrin receptors αvβ3) | also measured |
| --- | --- | --- |
| 1-(Cy5**-amido)-45-(3,5-dichlorophenyl)-39,43-dioxo-42-(5-(pyridin-2-ylamino)pentanamido)-3,6,9,12,15,18,21,24,27,30,33,36-dodecaoxa-40,44-diazaheptatetracontan-47-oic acid [imaging agent 7] |  | positive uptake, share of the cells [1]: around 40% |
| O=C(O)CC(NC(=O)[C@H](COCc1ccccc1)NC(=O)CCCCNc1ccccn1)c1cc(Cl)cc(Cl)c1 (some centres unmarked) [EMD527040, reference compound] | not possible to compete out binding of the radiolabelled Echistatin completely |  |
| C/C(=N/O)C(C)(C)NCCC(CCNC(=O)CCCC(=O)NC[C@H](NC(=O)CCCCNc1ccccn1)C(=O)NC(CC(=O)O)c1cc(Cl)cc(Cl)c1)CCNC(C)(C)/C(C)=N\O (stereo partly drawn) [Example 2(viii), (6S,Z)-3-(3,5-dichlorophenyl)-22-(hydroxyimino)-17-(2-(((Z)-3-(hydroxyimino)-2-methylbutan-2-yl)amino)ethyl)-21,21-dimethyl-5,9,13-trioxo-6-(5-(pyridin-2-ylamino)pentanamido)-4,8,14,20-tetraazatricosan-1-oic acid] | not possible to compete out binding of the radiolabelled Echistatin completely |  |
| NCCNCC(CNCCN)CC(=O)NC[C@H](NC(=O)CCCCNc1ccccn1)C(=O)NC(CC(=O)O)c1cc(Cl)cc(Cl)c1 (stereo partly drawn) [Example 3(ii), 3-((S)-3-(4-(2-Aminoethylamino)-3-((2-aminoethylamino)methyl)butanamido)-2-(5-(pyridin-2-ylamino)pentanamido)propanamido)-3-(3,5-dichlorophenyl)propanoic acid] | not possible to compete out binding of the radiolabelled Echistatin completely |  |
| Echistatin [reference compound] |  | Ki (integrin receptors αvβ3; competition with [^115I]-Echistatin, EA-Hy 926 membrane fraction, 1 h at 37° C.): 0.14 nM |
